Like-named read-outs stand apart in the source and are kept apart here.
Key:
[1] = tested on: systemic arterial pressure; test: Systemic arterial pressure; assay type: in vivo, CIA mice; settings: single IV injection, regardless of dose
[2] = tested on: collagen induced arthritis (CIA); test: Efficacy against collagen induced arthritis, subcutaneous treatment; assay type: in vivo, DBA/1J mice; settings: 5.0 nmol/animal SC on day 22 and 34; between days 34 and 40
[3] = cited from earlier work
[4] = tested on: collagen induced arthritis (CIA); assay type: in vivo, DBA/1J mice; settings: single IV dose on day 22, observed to day 58, 6 mice/group

## Vasoactive intestinal peptide [free VIP]
[1]
  time to full recovery of SAP to the norm: approximately one hour
[2]
  duration of disease suppression after cessation of treatment: about a week
[3]
  in vivo half-life: few minutes
[4]; 0.5 nmol/animal
  paw thickness and clinical arthritis score: did not show any therapeutic efficacy
[4]; 1.0 nmol/animal
  paw thickness and clinical arthritis score: did not show any therapeutic efficacy

— article PMC3563715 (Molecular pharmaceutics, 2013)
